Experimental data from US20250283073A1 (ORNA THERAPEUTICS, INC., priority 2021, published 2025).

Key:
[1] = tested on: primary human T cells; assay: FLuc circRNA LNP transfection of activated primary human T cells with or without ApoE3; type: cell-based; settings: 200 ng RNA/well, 24 hours, 4 donors
Method: Primary human T cells from independent donors were stimulated with aCD3/aCD28 and allowed to proliferate for 6 days in the presence of human serum and IL-2. Then, 100,000 cells were plated in a 96 well plate and LNPs containing circRNA coding for Firefly Luciferase (FLuc) were added to the cells at 200 ng RNA/well with or without Apolipoprotein E3 (ApoE3). After 24-hour incubation, luminescence was quantified using the Bright-Glo Luciferase Assay System (Promega) according to manufacturer's instructions and background luminescence from cells not treated with LNPs was subtracted. […] (See Example 70 for LNP formulation procesure, e.g., for 10a-27 (5.7A), 10a-26 (5.7A), 10a-27 (4.5D), and 10a-26 (4.5D) LNPs.)

[2] = tested on: splenic immune cells; assay: Cre circRNA LNP transfection of splenic immune cells in Ai9 Cre reporter mice (tdTomato); type: in vivo; settings: 0.5 mg/kg Cre RNA LNPs i.v., 48 hours
Method: Circular RNAs encoding Cre recombinase (Cre) are encapsulated into lipid nanoparticles as previously described. Female, 6-8 week old B6.Cg-Gt(ROSA)26Sortm9(CAG-tdTomato)Hze/J (Ai9) mice were dosed with lipid nanoparticles at 0.5 mg/kg RNA intravenously. Fluorescent tdTomato protein was transcribed and translated in Ai9 mice upon Cre recombination, meaning circular RNAs have been delivered to and translated in tdTomato+ cells. After 48 hr, mice were euthanized and the spleens were harvested, processed into a single cell suspension, and stained with various fluorophore-conjugated antibodies for immunophenotyping via flow cytometry.
Ai9 mice (B6.Cg-Gt(ROSA)26Sortm9(CAG-tdTomato)Hze/J, female, 6-8 weeks, n=3 per group) were injected i.v. with 0.5 mg/kg Cre circRNA LNPs or PBS. Ai9 mice transcribe and translate the fluorescent reporter tdTomato upon Cre recombination; meaning cells which are tdTomato+ have successfully been transfected with Cre circRNA. […] Flow cytometry was performed using an Attune Nxt Flow Cytometer (Thermo).

SMILES: CCCCCCCCC(CCCCCC)C(=O)OCCCCCCN(CCCCCCOC(=O)C(CCCCCC)CCCCCCCC)CCCn1ccnc1C (centres unmarked) [Lipid 10a-27, ((3-(2-methyl-1H-imidazol-1-yl)propyl)azanediyl)bis(hexane-6,1-diyl) bis(2-hexyldecanoate)]
- Firefly luminescence [1]: generally produced higher luminescence than those containing Lipid 10a-26
- tdTomato+ splenic immune cells [2]: transfect significantly more splenic immune cells than those made with Lipid 10a-46
